Measured values: patent US20200148682A1, “AKT ISOZYME-SPECIFIC COVALENT INHIBITORS DERIVED FROM REDOX-SIGNALING LIPIDS” (Cornell University, priority 2017, published 2020)

Legend:
Halo-Akt3 = biological target: T1, Halo-Akt3 (Homo sapiens, UniProt Q9Y243); assay: AKTAR FRET assay in live HEK293T cells; type: cell-based; settings: for Akt3 activity (green/blue FRET ratio) during treatment: 5 μM, 24 hours
T1 construct: expressed in transfected cells; host or cells: HEK293T
Method: (§1) FIGS. 21C-21D: HEK293T cells were transfected with plasmids encoding AKTAR and Halo-Akt3 (1:1). After 12 hours, cells were treated with MK-2206 (5 μM) or MK-HNE (5 μM). After 24 hours and 48 hours Akt3 activity was measured using ratiometric FRET analysis in live cells. After 48 hours, cells were washed two times with drug-free media containing 10% FBS and allowed to recover in 3% FBS MEM media for another 24 hours, after which time Akt3 activity was assayed using FRET again. wd=withdrawal for 24 hours. […] FIG. 21D is a graph showing quantitation of all data sets for treatment of HEK293T cells expressing Halo-Akt3/AKTAR. […] FIG. 21F is a graph showing quantitation of all data sets for treatment of HEK293T cells expressing Halo-Akt2/AKTAR. […] FIG. 21H is a graph showing quantitation of all data sets for treatment of HEK293T cells expressing Halo-Akt3C119S mutant/AKTAR.
(§2) HEK293T cells were plated in imaging plates at 60% confluence. After 24 hours, cells in each plate were transfected with 1 μg AktAR reporter plasmid and 1 μg plasmid of the designated HaloTag fusion Akt gene in PCS2+8 vector, using TransIT 2020 (6 μL) (FIG. 21B). 12 hours after transfection, cells were treated with 5 μM inhibitor or the equivalent final volume of DMSO in rinse medium containing 3% FBS and incubated for 24 hours before imaging. FRET imaging was performed using a Zeiss LSM 710 confocal microscope as previously described. Briefly, a 458 nm argon laser was used for excitation. The signals in the cyan channel (463-498 nm) and the yellow channel (525-620 nm) were recorded. Cells were then incubated in drug medium for another 24 hours before next imaging. The medium was aspirated and the cells were gently rinsed with 3% FBS in rinse medium twice every 30 min over the next hour, Fresh rinse medium with 3% FBS was added and the cells were imaged again after 24 hours. For quantification, the mean CFP and YFP signal intensity was measured using Image by drawing a freehand circle around the cells, and the ratio image was calculated. Graphing and data analysis (Student's t-test) were performed using Prism software.
(§3) One of the key benefits of covalent inhibition is the ability to uncouple pharmacokinetics from pharmacodynamics. This effect is achieved, because once irreversible inhibition occurs, an irreversible inhibitor will remain bound to its target post clearance of the unbound inhibitor. On the other hand, for a reversible inhibitor, as drug concentration drops, the drug is released from its target and inhibition is lost. This situation can be modeled in cell culture by removal of the drug from the media and measuring changes in activity as a function of time post drug removal. Akt inhibition was assayed using AKTAR (FIG. 21A). This fusion of two fluorescent proteins emits two different frequencies of light when excited with blue light, depending on the activity of Akt. When the construct is selectively phosphorylated by Akt, both blue and green light are emitted, due to fluorescence resonance energy transfer (FRET) from the CFP to the YFP. However, when the protein is not phosphorylated, emission is mainly in the blue channel. Thus the ratio of green to blue emission is a direct readout of Akt activity in live cells.

Halo-Akt2 = biological target: T2, Halo-Akt2 (Homo sapiens, UniProt P31751); assay: AKTAR FRET assay in live HEK293T cells; type: cell-based; settings: 5 μM, 24 hours
T2 construct: expressed in transfected cells; host or cells: HEK293T
Method: as §1, §2, §3

Akt3(C119S) = biological target: T3, Akt3(C119S) (Homo sapiens, UniProt Q9Y243, C119S); assay: AKTAR FRET assay in live HEK293T cells; type: cell-based; settings: for Akt3(C119S) activity (FRET) during treatment: 5 μM; for Akt3(C119S) activity (FRET) after drug withdrawal: 24 hours after removal from media
T3 construct: expressed in transfected cells; host or cells: HEK293T
Method: as §1, §2, §3

recombinant Akt3 = biological target: T4, recombinant Akt3 (Homo sapiens, UniProt Q9Y243); assay: NADH-coupled Akt activity assay (progress curve analysis); type: biochemical
T4 construct: purchased Active Motif 31147
Text: FIGS. 20A-20H show the kinetic analysis of Akt3 covalent inhibition by MK-HNE, MK-FNE, and MK-dHNE. FIG. 20A is a schematic representation of the NADH-coupled kinetic assay to monitor the progress of Akt-catalyzed phosphorylation of the known peptide substrate, Crosstide (Akt substrate, cat. No. sc-471145, Santa Cruz). […] The solid curves are the best nonlinear fits of the data using EQN. 1. FIG. 20D is a graph showing a replot of kobs for the progress curve as a function of MK-HNE concentration. FIG. 20F is a graph showing a replot of kobs for the progress curve as a function of MK-dHNE concentration. The hyperbolic curve is the best nonlinear fit to EQN. 2. FIG. 20H is a graph showing kobs for the progress curve as a function of MK-FNE concentration fit to a cooperative binding equation using EQN 3. Inhibition of recombinant Akt3 ([…]) by MK-HNE, MK-dHNE, and MK-FNE was assayed by progress curve analysis: inhibitor was added to enzyme in assay buffer containing 100 nM Akt3 kinase, 100 μM Crosstide (Akt substrate, cat. No. sc-471145, Santa Cruz), 500 μM ATP, 4 mM TCEP, 5 mM phosphoenolpyruvate, pyruvate kinase (24-40 units/mL), lactate dehydrogenase (36-56 units/mL), 500 μM NADH and various concentrations of the inhibitor. All curves were background rate subtracted. Product formation was measured continuously for 6 min. Over this time, Akt3 activity was constant in the absence of the inhibitors.
To a 96-well plate with varying amounts of indicated inhibitors was added the kinetic assay mixture containing, in final concentrations, 50 mM HEPES, 100 mM NaCl, 10 mM MgCl2, 5 mM phosphoenolpyruvate, 500 μM NADH, 100 μM crosstide (the Akt substrate, cat. No. sc-471145, Santa Cruz), pyruvate kinase (24-40 units/mL), lactate dehydrogenase (36-56 units/mL), 4 mM TCEP, 500 μM ATP. […] The progress of phosphorylation was monitored by reading absorbance at 340 nm over the course of study. […]
To gain a more quantitative understanding of the covalent inhibitors, inhibition of Akt3 by MK-HNE in vitro was investigated. […] Loss of NADH was measured by decrease in A340 as a function of time. […]

T3 sequence (Q9Y243 whole entry C119S): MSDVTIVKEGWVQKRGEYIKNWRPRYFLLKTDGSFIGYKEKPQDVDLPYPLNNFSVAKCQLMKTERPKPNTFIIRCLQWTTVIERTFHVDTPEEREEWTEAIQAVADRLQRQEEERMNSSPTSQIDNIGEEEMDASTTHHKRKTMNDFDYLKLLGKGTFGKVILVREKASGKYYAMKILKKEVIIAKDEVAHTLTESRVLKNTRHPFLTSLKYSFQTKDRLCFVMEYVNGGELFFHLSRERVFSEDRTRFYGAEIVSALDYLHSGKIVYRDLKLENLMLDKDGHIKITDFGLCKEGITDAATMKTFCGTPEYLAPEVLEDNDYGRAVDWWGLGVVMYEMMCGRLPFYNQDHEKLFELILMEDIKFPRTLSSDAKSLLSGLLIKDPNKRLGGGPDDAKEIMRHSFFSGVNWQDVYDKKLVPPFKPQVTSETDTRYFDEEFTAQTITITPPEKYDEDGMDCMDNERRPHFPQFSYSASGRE
T1 sequence (Q9Y243 whole entry): as the sequence (Q9Y243 whole entry C119S) above, with S119C counted along it
T4 sequence (Q9Y243 whole entry): as the sequence (Q9Y243 whole entry C119S) above, with S119C counted along it
T2 sequence (P31751 whole entry): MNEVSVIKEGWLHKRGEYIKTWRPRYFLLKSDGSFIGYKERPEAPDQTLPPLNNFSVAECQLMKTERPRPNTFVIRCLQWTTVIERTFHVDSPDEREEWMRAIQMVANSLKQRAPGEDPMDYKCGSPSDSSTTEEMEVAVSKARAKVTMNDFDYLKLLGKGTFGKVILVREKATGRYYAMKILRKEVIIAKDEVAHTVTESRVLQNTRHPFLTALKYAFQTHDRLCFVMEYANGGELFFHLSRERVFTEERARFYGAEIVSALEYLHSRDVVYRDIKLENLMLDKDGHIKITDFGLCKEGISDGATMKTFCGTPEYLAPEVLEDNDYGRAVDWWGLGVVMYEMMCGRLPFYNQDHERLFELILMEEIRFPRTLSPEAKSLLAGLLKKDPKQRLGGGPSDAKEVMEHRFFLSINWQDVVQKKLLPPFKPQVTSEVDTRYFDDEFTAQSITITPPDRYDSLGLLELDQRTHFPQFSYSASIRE

Row | n (Hill coefficient) (recombinant Akt3; cooperative binding fit of kobs vs concentration) | kinact/KI (recombinant Akt3; recombinant Akt3, as stated in text) [M⁻¹ s⁻¹] | inhibition profile of Akt3 (recombinant Akt3; progress curves) | SMILES | Akt3 activity (green/blue FRET ratio) during treatment (Halo-Akt3) | Akt3 activity (green/blue FRET ratio) after drug withdrawal (Halo-Akt3; 48 hours drug, then 24 hours withdrawal) | Akt2 activity (green/blue FRET ratio) during treatment (Halo-Akt2) | Akt3(C119S) activity (FRET) during treatment (Akt3(C119S)) | Akt3(C119S) activity (FRET) after drug withdrawal (Akt3(C119S))
1 |  |  |  | NC1(c2ccc(-c3nc4ccn5c(=O)[nH]nc5c4cc3-c3ccccc3)cc2)CCC1 [MK-2206] | decrease in green/blue fluorescence | returned to those observed in untreated cells | decrease in green/blue fluorescence | Akt inhibition was observed | no inhibition was observed
2 | 3.2 | ~10000 |  | C#CCCCC(F)/C=C/C(=O)NC1(c2ccc(-c3nc4ccn5c(=O)[nH]nc5c4cc3-c3ccccc3)cc2)CCC1.Cl (stereo not drawn) [MK-FNE, (E)-8-(4-(1-(4-Fluoronon-2-en-8-ynamido)cyclobutyl)phenyl)-3-oxo-9-phenyl-2,3-dihydro-[1,2,4]triazolo[3,4-f][1,6]naphthyridin-7-ium Chloride] | decrease in green/blue fluorescence |  | decrease in green/blue fluorescence |  | 
3 |  |  | time-dependent inhibitor | C#CCCCC(O)/C=C/C(=O)NC1(c2ccc(-c3nc4ccn5c(=O)[nH]nc5c4cc3-c3ccccc3)cc2)CCC1.Cl (stereo not drawn) [MK-HNE, (E)-8-(4-(1-(4-Hydroxynon-2-en-8-ynamido)cyclobutyl)phenyl)-3-oxo-9-phenyl-2,3-dihydro-[1,2,4]triazolo[3,4-f][1,6]naphthyridin-7-ium Chloride] |  |  |  | Akt inhibition was observed | no inhibition was observed
